Columns and labels:
[1] = molecular target: T1, Human PDGFRα, cytoplasmic domain (GST-PDGFRα) (Homo sapiens, UniProt P16234); assay: Human PDGFRα biochemical inhibition assay (off-chip Mobility Shift Assay)
T1 construct: made in house

[2] = molecular target: T2, Human PDGFRβ, cytoplasmic domain (GST-PDGFRβ) (Homo sapiens, UniProt P09619); assay: Human PDGFRβ biochemical inhibition assay (off-chip Mobility Shift Assay)
T2 construct: made in house
Method in brief: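 GST-tagged cytoplasmic domain (aa 557-1106) from baculovirus was incubated 1 h at room temperature with compound, CSKtide, ATP at Km and Mg²⁺ in HEPES buffer, pH 7.5. Phosphorylated and unphosphorylated peptide were separated by off-chip mobility shift, and the product ratio P/(P+S) gave percent inhibition.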

T2 sequence (P09619 with tags, fused parts or gaps): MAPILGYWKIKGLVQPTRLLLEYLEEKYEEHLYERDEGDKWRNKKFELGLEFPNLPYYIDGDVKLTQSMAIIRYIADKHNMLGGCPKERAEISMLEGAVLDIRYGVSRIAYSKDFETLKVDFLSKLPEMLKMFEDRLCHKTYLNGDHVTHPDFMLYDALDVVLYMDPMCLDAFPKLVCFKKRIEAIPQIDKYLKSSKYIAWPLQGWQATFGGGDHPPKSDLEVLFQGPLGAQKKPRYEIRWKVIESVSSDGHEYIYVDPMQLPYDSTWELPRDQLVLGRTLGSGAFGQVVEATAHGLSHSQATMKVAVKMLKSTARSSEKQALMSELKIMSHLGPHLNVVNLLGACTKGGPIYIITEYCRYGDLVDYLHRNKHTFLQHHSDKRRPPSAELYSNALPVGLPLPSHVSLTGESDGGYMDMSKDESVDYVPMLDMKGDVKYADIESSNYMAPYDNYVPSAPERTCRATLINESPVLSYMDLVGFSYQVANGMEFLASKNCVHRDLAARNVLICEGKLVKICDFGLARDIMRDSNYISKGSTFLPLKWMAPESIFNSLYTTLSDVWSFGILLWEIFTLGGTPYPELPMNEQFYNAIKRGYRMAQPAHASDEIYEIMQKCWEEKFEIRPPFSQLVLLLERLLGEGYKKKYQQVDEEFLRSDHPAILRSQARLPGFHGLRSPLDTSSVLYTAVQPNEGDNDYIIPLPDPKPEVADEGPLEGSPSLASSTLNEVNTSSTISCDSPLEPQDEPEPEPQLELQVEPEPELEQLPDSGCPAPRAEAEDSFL
T1 sequence (P16234 550-1089 T674I): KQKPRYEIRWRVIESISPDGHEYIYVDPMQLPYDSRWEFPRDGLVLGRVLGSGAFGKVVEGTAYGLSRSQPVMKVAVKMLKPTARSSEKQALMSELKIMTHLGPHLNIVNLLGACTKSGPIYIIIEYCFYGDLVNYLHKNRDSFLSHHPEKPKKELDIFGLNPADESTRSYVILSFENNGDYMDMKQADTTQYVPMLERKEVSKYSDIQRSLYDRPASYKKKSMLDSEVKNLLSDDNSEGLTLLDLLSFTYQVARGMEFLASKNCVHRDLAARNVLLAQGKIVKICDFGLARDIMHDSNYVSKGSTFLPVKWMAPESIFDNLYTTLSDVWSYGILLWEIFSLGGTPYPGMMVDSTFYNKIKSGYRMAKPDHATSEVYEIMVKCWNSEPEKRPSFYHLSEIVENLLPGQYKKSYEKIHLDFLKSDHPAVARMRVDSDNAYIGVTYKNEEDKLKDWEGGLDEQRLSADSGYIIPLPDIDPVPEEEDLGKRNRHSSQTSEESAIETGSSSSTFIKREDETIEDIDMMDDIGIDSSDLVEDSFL

Compound	IC50 [1] [nM]	IC50 [2] [nM]
Cc1cncc(C(=O)Nc2cccc([C@H](C)Nc3cnc4[nH]ccc4n3)c2)c1 [Compound 552, (S)-N-(3-(1-((5H-pyrrolo[2,3-b]pyrazin-2-yl)amino)ethyl)phenyl)-5-methylnicotinamide]	< 300	< 300
CC(C)c1cc(C(=O)Nc2cccc([C@H](C)Nc3cnc4[nH]ccc4n3)c2)no1 [Compound 553, (S)-N-(3-(1-((5H-pyrrolo[2,3-b]pyrazin-2-yl)amino)ethyl)phenyl)-5-isopropylisoxazole-3-carboxamide]	< 300	< 300
Cc1c[nH]c2ncc(N[C@@H](C)c3cccc(NC(=O)c4cc(C(C)C)on4)c3)nc12 [Compound 554, (S)-5-isopropyl-N-(3-(1-((7-methyl-5H-pyrrolo[2,3-b]pyrazin-2-yl)amino)ethyl)phenyl)isoxazole-3-carboxamide]	< 300	< 300
COc1cncc(C(=O)Nc2cccc([C@H](C)Nc3cnc4[nH]cc(C)c4n3)c2)c1 [Compound 555, (S)-5-methoxy-N-(3-(1-((7-methyl-5H-pyrrolo[2,3-b]pyrazin-2-yl)amino)ethyl)phenyl)nicotinamide]	< 300	< 300
Cc1c[nH]c2ncc(N[C@@H](C)c3cccc(NC(=O)c4cncc(C(F)F)c4)c3)nc12 [Compound 556, (S)-5-(difluoromethyl)-N-(3-(1-((7-methyl-5H-pyrrolo[2,3-6]pyrazin-2-yl)amino)ethyl)phenyl)nicotinamide]	< 300	< 300
Cc1c[nH]c2ncc(N[C@@H](C)c3cccc(NC(=O)c4ccc(C(F)(F)F)nc4)c3)nc12 [Compound 557, (S)-N-(3-(1-((7-methyl-5H-pyrrolo[2,3-b]pyrazin-2-yl)amino)ethyl)phenyl)-6-(trifluoromethyl)nicotinamide]	< 300	< 300
Cc1c[nH]c2ncc(N[C@@H](C)c3cccc(NC(=O)c4ccc(C5CC5)nc4)c3)nc12 [Compound 558, (S)-6-cyclopropyl-N-(3-(1-((7-methyl-5H-pyrrolo[2,3-b]pyrazin-2-yl)amino)ethyl)phenyl)nicotinamide]	< 300	< 300
Cc1cc(C(=O)Nc2cccc([C@H](C)Nc3cnc4[nH]cc(C)c4n3)c2)cnc1C(F)(F)F [Compound 559, (S)-5-methyl-N-(3-(1-((7-methyl-5H-pyrrolo[2,3-b]pyrazin-2-yl)amino)ethyl)phenyl)-6-(trifluoromethyl) nicotinamide]	< 300	< 300
Cc1c[nH]c2ncc(N[C@@H](C)c3cccc(NC(=O)c4ccc(C(F)F)s4)c3)nc12 [Compound 560, (S)-5-(difluoromethyl)-N-(3-(1-((7-methyl-5H-pyrrolo[2,3-b]pyrazin-2-yl)amino)ethyl)phenyl)thiophene-2-carboxamide]	< 300	< 300
Cc1c[nH]c2ncc(N[C@@H](C)c3cccc(NC(=O)c4cnn(C(F)F)c4)c3)nc12 [Compound 561, (S)-1-(difluoromethyl)-N-(3-(1-((7-methyl-5H-pyrrolo[2,3-b]pyrazin-2-yl)amino)ethyl)phenyl)-1H-pyrazole-4-carboxamide]	< 300	< 300
Cc1c[nH]c2ncc(N[C@@H](C)c3cccc(NC(=O)c4cc(C(F)(F)F)nn4C)c3)nc12 [Compound 562, (S)-1-methyl-N-(3-(1-((7-methyl-5H-pyrrolo[2,3-b]pyrazin-2-yl)amino)ethyl)phenyl)-3-(trifluoromethyl)-1H-pyrazole-5-carboxamide]	< 300	300 to 1000
Cc1cncc(C(=O)Nc2cccc([C@H](C)Nc3cnc4[nH]cc(-c5cnn(C)c5)c4n3)c2)c1 [Compound 563, (S)-5-methyl-N-(3-(1-((7-(1-methyl-H-pyrazol-4-yl)-5H-pyrrolo[2,3-b]pyrazin-2-yl)amino)ethyl)phenyl) nicotinamide]	< 300	< 300

From US20230102554A1 (GB002, INC., priority 2019, published 2023)
